# Experimental data published in US12390532B2, “ALK protein regulator and anti-tumor application thereof” (SHANGHAITECH UNIVERSITY, priority 2019, dated 2025).
# Like-named read-outs stand apart in the source and are kept apart here.
# Key:
# Type in all cases: cell-based
# [1] = tested on: SR cells (NPM-ALK, human anaplastic large cell lymphoma cells); experiment: Proliferation inhibition (IC50) in SR cells, CCK8 (WST) reagent; settings: 72 h
# Description: (§1) The ALK gene rearrangement positive cell line used was SR cells (NPM-ALK, human anaplastic large cell lymphoma cells). MDA-MB231 was a triple-negative breast cancer cell. Both SR cells and MDA-MB231 cells were purchased from ATCC.
# The tumor cell line used was daily cultured in a 37° C. incubator containing 5% CO2. The medium was RPMI1640 supplemented with 10% FCS and Penicillin-Streptomycin.
# (§2) The IC50 of the compound of the present disclosure was determined using Promega's Cell Titer Blue, Cell Titer GLO or commercially available WST reagents. The specific steps were as follows: the cells were seeded in a 96-well plate containing 100 microliters of RPMI medium containing serum at a number of 2000 cells/well. On the second day, the original drug and the compound of the present disclosure were serially diluted and added to the cells. After 72 hours of treatment with the compound of the present disclosure, the cell activity detection reagent was added to the culture medium for cell activity determination according to the instructions. The negative control was DMSO, and the positive control was the original drug, and the cells were treated in the same manner as the compound of the present disclosure. The growth inhibition of the compounds of the present disclosure on cells was plotted by Prism Graphpad software and the IC50 of the compounds of the present disclosure was counted from it.
# We conducted dose-dependent experiments on the designed and synthesized compounds of the present disclosure in SR cells. […] The cells were treated with different concentrations of compounds (starting at 10 μM, 3 times dilution factor, 10 concentrations). After 72 hours, the cells were detected using CCK8 reagent (WST).
# [2] = molecular target: T1, ALK protein (Homo sapiens, UniProt Q9UM73); experiment: Western blot of ALK protein degradation in SR cells
# T1 construct: We studied the total ALK protein in the anaplastic large cell lymphoma cell line SR; host or cells: SR cells (human anaplastic large cell lymphoma); the other entry of the earlier key: NPM1 (P06748, Nucleophosmin)
# Description: as §1, with “ATCC. The 293T cells overexpressing EML4-ALK G1202R were the cells constructed and verified for correct expression by this laboratory.” for “ATCC.”
# Tumor cells were seeded in a 24-well plate containing 1 ml of RPMI1640 medium at 1.5-3×10^5 cells/well. The next day, the cells were treated with different concentrations of drugs. After 16 hours, the supernatant was removed and the cells were washed with PBS. The cells were placed on ice and the cells were treated with RIPA protein lysate containing Halt protease and phosphatase inhibitors. The lysate was centrifuged at 10000RPM at 4° C. for 10 minutes, and the supernatant was collected. The same amount of protein was added to the 4×SDS sample solution, denatured at 95° C. for 5 minutes and freezen to −20° C., or protein electrophoresis was directly performed. GenScript, a 4-20% gradient protein precast gel was used as the electrophoresis gel. The electrophoresis tank and related components were purchased from Bio-rad, and the electrophoresis conditions were equal pressure 120 v for 2 hours. PVDF membrane was used for the transfer membrane, and the transfer membrane system was placed on ice with an equal current of 400 mA for one hour. After transferring the membrane, it was sealed with TBST+5% milk powder for half an hour. For the specific steps of immunoblotting, refer to the antibody instructions of Cell Signaling Technology.
# DC50 (the drug concentration corresponding to protein degradation to 50%) calculation: according to the gray value of the Western blotting band after the drug is processed, the relationship curve between the drug concentration and the gray value is fitted by Prism GraphPad software to calculate the drug concentration range corresponding half of the gray value.
# The cells with different concentrations (0, 10, 50, 100, 500 nM) of Brigatinib were first treated in SR cells for 16 hours. Western blotting was used on cell lysate to detect the effect of Brigatinib on the content of ALK protein (FIG. 2).
# [3] = tested on: triple-negative breast cancer MDA-MB-231 cell line; experiment: Proliferation inhibition (IC50) in MDA-MB-231 cell line; settings: Homo sapiens, WST reagent, 72 hours, read-out: IC50 (half inhibitory concentration) in MDA-MB-231 cell line
# Description: as §1, with “ATCC. The 293T cells overexpressing EML4-ALK G1202R were the cells constructed and verified for correct expression by this laboratory.” for “ATCC.”
# as §2
# [4] = SR cells, WST reagent, 72 hours, read-out: IC50 (half inhibitory concentration), Brigatinib series in lymphoma cell lines
# [5] = 16 hours, concentration range at half of the gray value, read-out: DC50 (half degradation concentration), Brigatinib series in lymphoma cell lines
# [6] = read-out: IC50 (half inhibitory concentration), Alectinib series in lymphoma cell lines, SR cells, WST reagent, 72 hours
# [7] = read-out: DC50 (half degradation concentration), Alectinib series in lymphoma cell lines, 16 hours, concentration range at half of the gray value
# T1 sequence (Q9UM73 with tags, fused parts or gaps): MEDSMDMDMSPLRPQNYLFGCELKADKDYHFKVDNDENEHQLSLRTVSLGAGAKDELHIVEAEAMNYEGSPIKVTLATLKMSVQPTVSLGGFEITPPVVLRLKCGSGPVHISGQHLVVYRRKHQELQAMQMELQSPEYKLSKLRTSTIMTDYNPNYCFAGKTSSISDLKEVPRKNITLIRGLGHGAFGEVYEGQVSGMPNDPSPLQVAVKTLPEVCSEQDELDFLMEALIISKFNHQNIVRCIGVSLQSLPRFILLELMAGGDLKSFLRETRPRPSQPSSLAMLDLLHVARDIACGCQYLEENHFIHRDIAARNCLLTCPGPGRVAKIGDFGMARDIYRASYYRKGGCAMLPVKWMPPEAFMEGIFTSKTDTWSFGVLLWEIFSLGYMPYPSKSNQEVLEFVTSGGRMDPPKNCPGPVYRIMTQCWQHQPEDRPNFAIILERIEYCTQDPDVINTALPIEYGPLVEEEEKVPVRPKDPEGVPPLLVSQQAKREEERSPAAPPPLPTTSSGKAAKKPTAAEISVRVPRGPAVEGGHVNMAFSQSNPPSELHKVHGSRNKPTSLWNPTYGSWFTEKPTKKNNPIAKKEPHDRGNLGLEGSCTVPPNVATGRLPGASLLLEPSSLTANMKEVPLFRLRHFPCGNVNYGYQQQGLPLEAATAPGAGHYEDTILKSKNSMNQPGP
Compound,"IC50 [1, 4]",concentration from which a degradation effect on ALK protein is shown [2],other results
"COc1cc(N2CCC(N3CCNCC3)CC2)ccc1Nc1ncc(Cl)c(Nc2ccccc2P(C)(C)=O)n1 [Brigatinib derivative C (SIAIS164005), (2-((5-Chloro-2-((2-methoxy-4-(4-(piperazin-1-yl)piperidin-1-yl)phenyl)amino)pyrimidin-4-yl)amino)phenyl) dimethyl phosphine oxide, reference compound]",11.1 nM,–,"degradation effect on ALK protein ([2]; 16 hours, concentrations up to 500 nM): no degradation effect"
"CCc1cc2c(cc1N1CCC(N3CCN(C(=O)CNc4cccc5c4CN(C4CCC(=O)NC4=O)C5=O)CC3)CC1)C(C)(C)c1[nH]c3cc(C#N)ccc3c1C2=O (stereo not drawn) [SIAIS262091, 8-(4-(4-{(2-(2,6-dioxopiperidin-3-yl)-1-oxoisoindolin-4-yl)aminoacetyl)piperazin-1-yl)piperidin-1-yl)-9-ethyl-6,6-dimethyl-11-oxo-6,11-dihydro-5H-benzo[b]carbazole-3-carbonitrile]",–,less than 0.005 nM,"IC50 [1, 6]: ~0.34 nM; DC50 [2, 7]: 0.05 to 0.5 nM"
"CCc1cc2c(cc1N1CCC(N3CCN(CCCC#Cc4cccc5c4CN(C4CCC(=O)NC4=O)C5=O)CC3)CC1)C(C)(C)c1[nH]c3cc(C#N)ccc3c1C2=O (stereo not drawn) [SIAIS293001, 8-(4-(4-(5-(2-(2,6-dioxopiperidin-3-yl)-1-oxoisoindolin-4-yl)pent-4-yn-1-yl)piperazin-1-yl)piperidin-1-yl)-9-ethyl-6,6-dimethyl-11-oxo-6,11-dihydro-5H-benzo[b]carbazole-3-carbonitrile]",–,–,"IC50 [1, 6]: 2.7 nM; DC50 [2, 7]: 0.05 to 0.5 nM"
"CCc1cc2c(cc1N1CCC(N3CCN(C(=O)COc4cccc5c4C(=O)N(C4CCC(=O)NC4=O)C5=O)CC3)CC1)C(C)(C)c1[nH]c3cc(C#N)ccc3c1C2=O (stereo not drawn) [SIAIS293010, 8-(4-(4-(2-((2-(2,6-dioxopiperidin-3-yl)-1,3-dioxoisoindolin-4-yl)oxy)acetyl)piperazin-1-yl)piperidin-1-yl)-9-ethyl-6,6-dimethyl-11-oxo-6,11-dihydro-5H-benzo[b]carbazole-3-carbonitrile]",–,0.5 nM,"IC50 [1, 6]: 2 nM; DC50 [2, 7]: 0.05 to 0.5 nM"
"COc1cc(N2CCC(N(C)CCCC#Cc3cccc4c3CN(C3CCC(=O)NC3=O)C4=O)CC2)ccc1Nc1ncc(Cl)c(Nc2ccccc2P(C)(C)=O)n1 (stereo not drawn) [SIAIS353050, 3-(4-(5-((1-(4-((5-chloro-4-((2-(dimethylphosphono)phenyl)amino)pyrimidin-2-yl)amino)-3-methoxyphenyl)piperidin-4-yl)(methyl)amino)pent-1-yn-1-yl)-1-oxoisoindolin-2-yl)piperidine-2,6-dione]",4.8 ± 0.1 nM,–,–

# The remaining molecules from weak to strong by IC50 [1, 4], led by results:
"IC50 [1, 4]",concentration from which a degradation effect on ALK protein is shown [2],Compound,other results
2 nM,5 nM,"COc1cc(N2CCC(N3CCN(CCCCCCCC#Cc4cccc5c4CN(C4CCC(=O)NC4=O)C5=O)CC3)CC2)ccc1Nc1ncc(Cl)c(Nc2ccccc2P(C)(C)=O)n1 (stereo not drawn) [SIAIS293018, 3-(4-(9-(4-(1-(4-((5-chloro-4-((2-(dimethylphosphono)phenyl)amino)pyrimidin-2-yl)amino)-3-methoxyphenyl)piperidin-4-yl)piperazin-1-yl)non-1-yn-1-yl)-1-oxoisoindolin-2-yl)piperidine-2,6-dione]","DC50 [2, 5]: 0.05 to 0.5 nM"
1.5 nM,–,"COc1cc(N2CCC(N3CCN(CCCCCCC#Cc4cccc5c4CN(C4CCC(=O)NC4=O)C5=O)CC3)CC2)ccc1Nc1ncc(Cl)c(Nc2ccccc2P(C)(C)=O)n1 (stereo not drawn) [SIAIS293017, 3-(4-(8-(4-(1-(4-((5-chloro-4-((2-(dimethylphosphono)phenyl)amino)pyrimidin-2-yl)amino)-3-methoxyphenyl)piperidin-4-yl)piperazin-1-yl)oct-1-yn-1-yl)-1-oxoisoindolin-2-yl)piperidine-2,6-dione]","DC50 [2, 5]: 0.5 to 5 nM"
1.3 nM,–,"COc1cc(N2CCC(NCCCC#Cc3cccc4c3CN(C3CCC(=O)NC3=O)C4=O)CC2)ccc1Nc1ncc(Cl)c(Nc2ccccc2P(C)(C)=O)n1 (stereo not drawn) [SIAIS293093, 3-(4-(5-((1-(4-((5-chloro-4-((2-(dimethylphosphono)phenyl)amino)pyrimidin-2-yl)amino)-3-methoxyphenyl)piperidin-4-yl)amino)pent-1-yn-1-yl)-1-oxoisoindolin-2-yl)piperidine-2,6-dione]",IC50 [3]: 191 ± 106 nM
1.1 nM,–,"COc1cc(N2CCC(N3CCN(CCCCC#Cc4cccc5c4CN(C4CCC(=O)NC4=O)C5=O)CC3)CC2)ccc1Nc1ncc(Cl)c(Nc2ccccc2P(C)(C)=O)n1 (stereo not drawn) [SIAIS262040, 3-(4-(6-(4-(1-(4-((5-chloro-4-((2-(dimethylphosphono)phenyl)amino)pyrimidin-2-yl)amino)-3-methoxyphenyl)piperidin-4-yl)piperazin-1-yl)hex-1-yn-1-yl)-1-oxoisoindolin-2-yl)piperidine-2,6-dione]","DC50 [2, 5]: 0.05 to 0.5 nM"
1.1 ± 0.3 nM,–,"COc1cc(N2CCC(N3CCN(CCCCc4cccc5c4CN(C4CCC(=O)NC4=O)C5=O)CC3)CC2)ccc1Nc1ncc(Cl)c(Nc2ccccc2P(C)(C)=O)n1 (stereo not drawn) [SIAIS352059, 3-(4-(4-(4-(1-(4-((5-chloro-4-((2-(dimethylphosphono)phenyl)amino)pyrimidin-2-yl)amino)-3-methoxyphenyl)piperidin-4-yl)piperazin-1-yl)butyl)-1-oxoisoindolin-2-yl)piperidine-2,6-dione]",IC50 [3]: 75 ± 58 nM
1.1 ± 0.2 nM,–,"COc1cc(N2CCC(N(C)CCCCCSc3cccc4c3CN(C3CCC(=O)NC3=O)C4=O)CC2)ccc1Nc1ncc(Cl)c(Nc2ccccc2P(C)(C)=O)n1 (stereo not drawn) [SIAIS353044, 3-(4-((5-((1-(4-((5-chloro-4-((2-(dimethylphosphono)phenyl)amino)pyrimidin-2-yl)amino)-3-methoxyphenyl)piperidin-4-yl)(methyl)amino)pentyl)thio)-1-oxoisoindolin-2-yl)piperidine-2,6-dione]",–
~1 nM,less than 0.005 nM,"COc1cc(N2CCC(N3CCN(CCCC#Cc4cccc5c4CN(C4CCC(=O)NC4=O)C5=O)CC3)CC2)ccc1Nc1ncc(Cl)c(Nc2ccccc2P(C)(C)=O)n1 (stereo not drawn) [SIAIS262039, 3-(4-(5-(4-(1-(4-((5-chloro-4-((2-(dimethylphosphono)phenyl)amino)pyrimidin-2-yl)amino)-3-methoxyphenyl)piperidin-4-yl)piperazin-1-yl)pent-1-yn-1-yl)-1-oxoisoindolin-2-yl)piperidine-2,6-dione]",IC50 [3]: 22.5 ± 2.26 nM
0.6 ± 0.4 nM,–,"COc1cc(N2CCC(N3CCN(C(=O)NCCCCSc4cccc5c4CN(C4CCC(=O)NC4=O)C5=O)CC3)CC2)ccc1Nc1ncc(Cl)c(Nc2ccccc2P(C)(C)=O)n1 (stereo not drawn) [SIAIS353062, 4-(1-(4-((5-chloro-4-((2-(dimethylphosphono)phenyl)amino)pyrimidin-2-yl)amino)-3-methoxyphenyl)piperidin-4-yl)-N-(4-((2-(2,6-dioxopiperidin-3-yl)-1-oxoisoindolin-4-yl)thio)butyl)piperazine-1-carboxamide]",–
